Results published in patent publication US10172859B2, “Arylquinazolines” (Merck Patent GmbH, priority 2013, dated 2019).
Like-named read-outs stand apart in the source and are kept apart here.

Tests used:
Kv11.1 (hERG) channel [1] = molecular target: T1, Kv11.1 (hERG) channel (Homo sapiens (Human), UniProt Q12809); assay: Kv11.1 (hERG) ion channel activity (patch clamp assay)
Procedure: (§1) C) Kv11.1 (hERG) ION CHANNEL ACTIVITY (Patch Clamp Assay)
(§2) The patch-clamp measurement was carried out at room temperature in whole-cell configuration on human embryonic kidney cells (HEK293) which have been transfected in a stable manner with the hERG gene.
(§3) The whole-cell configurations were carried out using an automated patch clamp device (Patchliner™, Nanion Technologies, Munich). This is a glass chip-based system with which automated whole-cell measurements on up to 8 cells simultaneously are possible. The glass chip has a hole of defined size to which the cell is transferred into the Gigaseal by application of a reduced pressure and brought into the whole-cell configuration. Buffer, cell suspension and test substances were added to microchannels of the chip using a Teflon-coated pipette. The cells were clamped to a holding potential of −80 mV. For measurement of substancepromoted inhibition of the Kv11.1 channel, the following voltage protocol was applied at 10-second intervals: 51 ms/−80 mV, 500 ms/+40 mV, 500 ms/−40 mV, 200 ms/−80 mV. The leakage current is subtracted by means of the P4 method. The cells were resuspended in extracellular buffer (EC) and applied to the chip. After the cell had been collected, the seal was improved by addition of a seal enhancer buffer. As soon as the whole-cell configuration had been reached, the seal enhancer buffer was washed out and replaced by extracellular buffer. The measurement started in EC for 1.5 min. DMSO (vehicle control, 0.1% of DMSO) was then applied, and the control current was recorded for 3 min. The test substance was subsequently added twice in the same concentration, and the potassium current was measured for 3.5 min in each case.
(§4) The reference substance used was the Kv11.1 (hERG) ion channel blocker quinidine. The effects of test substances and quinidine were standardised to the associated vehicle control. The effect on the Kv11.1 (hERG) channel activity was assessed from the potassium current at −40 mV. For the calculation, the current was evaluated for the respective final trace.
(§5) During the measurement, an aliquot of the test substance was taken for concentration determination. The sample was measured immediately by HPLC, and the final concentration was determined from a calibration curve.

DNA-PK/protein complex = DNA-PK/protein complex (Homo sapiens (Human), UniProt P78527); assay: DNA-PK assay (biochemical), flashplate kinase assay
Procedure: A) DNA-PK Assay (Biochemical)
The kinase assay was carried out in streptavidin-coated […] microtitre flashplates. […] The reaction was stopped using 50 μl/well of 200 mM EDTA. After incubation for a further 30 min at room temperature, the liquid was removed. Each well was washed three times with 100 μl of 0.9% saline solution. A nonspecific reaction (blank value) was determined using 10 μM of an innate kinase inhibitor. The radioactivity measurement was carried out using a TopCount. IC50 values were calculated in RS1.

[2] = molecular target: phospho-serine 2056 DNA-PK in HCT116 cells (Homo sapiens (Human), UniProt P78527); assay: DNA-PK phosphorylation at serine 2056 (cellular), ELISA in bleomycin-treated HCT116 cells; assay type: cell-based; settings: read-out: IC50 pDNA-PK
Procedure: HCT116 cells were cultivated at 37° C. and 10% CO2 in MEM alpha medium with 10% of foetal calf serum and 2 mM glutamine. The cells were detached from the base of the culture vessels with the aid of trypsin/EDTA, centrifuged off in centrifuge tubes, taken up in fresh medium, and the cell density was determined. 100,000 cells were sown in 1 ml of culture medium per cavity of a 24-well cell culture plate and cultivated overnight. Next day, 10 μM bleomycin (DNA intercalator and inductor of DNA double-strand breaks) and test substances in fresh culture medium were added to the cells, and these were cultivated for a further six hours. […] The 96-well ELISA plates were subsequently treated with a detection antibody (Abcam ab79444: total DNA-PK) and a streptavidin-HRP conjugate. The development of the enzymatic reaction was carried out with the aid of a chemiluminescent reagent, the chemiluminescence was measured with the aid of a Mithras LB940. The signals with the phospho-DNA-PK-specific antibody were standardised to the signal with the antibody against the total protein DNA-PKc. […] The DMSO control was used as blank.

Kv11.1 (hERG) channel [3] = molecular target: T1, Kv11.1 (hERG) channel
Procedure: as §1, §2, §3, §4, §5

[4] = cellular, HCT116, 10 μM bleomycin, six hours

T1 sequence (Q12809 whole entry): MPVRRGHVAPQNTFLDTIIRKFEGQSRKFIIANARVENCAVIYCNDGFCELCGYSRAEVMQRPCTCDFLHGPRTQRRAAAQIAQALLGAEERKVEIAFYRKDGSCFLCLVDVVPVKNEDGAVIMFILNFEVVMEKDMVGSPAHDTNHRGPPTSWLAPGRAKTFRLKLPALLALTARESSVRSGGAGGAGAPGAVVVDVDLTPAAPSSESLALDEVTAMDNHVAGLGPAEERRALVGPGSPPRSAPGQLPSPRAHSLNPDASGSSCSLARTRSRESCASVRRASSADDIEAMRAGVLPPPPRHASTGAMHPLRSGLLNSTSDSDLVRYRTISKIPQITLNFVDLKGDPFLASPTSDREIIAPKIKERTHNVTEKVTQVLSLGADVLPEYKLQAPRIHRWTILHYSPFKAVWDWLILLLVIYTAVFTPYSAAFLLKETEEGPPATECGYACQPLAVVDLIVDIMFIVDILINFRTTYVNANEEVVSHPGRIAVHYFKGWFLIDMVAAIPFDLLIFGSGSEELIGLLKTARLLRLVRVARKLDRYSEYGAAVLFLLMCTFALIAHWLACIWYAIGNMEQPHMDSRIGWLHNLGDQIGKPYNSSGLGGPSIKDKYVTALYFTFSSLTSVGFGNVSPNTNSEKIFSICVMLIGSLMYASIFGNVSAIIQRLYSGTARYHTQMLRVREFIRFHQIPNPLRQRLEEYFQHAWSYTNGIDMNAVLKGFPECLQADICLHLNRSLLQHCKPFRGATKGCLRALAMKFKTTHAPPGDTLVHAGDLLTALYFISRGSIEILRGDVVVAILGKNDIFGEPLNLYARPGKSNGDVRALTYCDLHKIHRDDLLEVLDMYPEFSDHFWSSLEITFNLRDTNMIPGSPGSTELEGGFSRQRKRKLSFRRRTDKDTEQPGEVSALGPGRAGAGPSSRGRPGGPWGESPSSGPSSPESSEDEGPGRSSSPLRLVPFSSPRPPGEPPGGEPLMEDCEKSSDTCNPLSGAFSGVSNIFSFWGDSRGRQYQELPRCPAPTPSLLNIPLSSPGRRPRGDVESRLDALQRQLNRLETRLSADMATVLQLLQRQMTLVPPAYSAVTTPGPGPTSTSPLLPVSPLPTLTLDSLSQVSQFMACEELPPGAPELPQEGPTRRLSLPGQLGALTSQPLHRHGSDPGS

Which Ki (Kv11.1 (hERG) channel [1]) does the source give for `Cn1nccc1C(O)c1ccc(F)c(-c2nc(Cl)nc3cc(N4CCOCC4)ccc23)c1` (centres unmarked) [Example 214, [3-(2-Chloro-7-morpholin-4-yl-quinazolin-4-yl)-4-fluoro-phenyl]-(2-methyl-2H-pyrazol-3-yl)-methanol] here?
The Ki was 15 to 25 µM.

What about the IC50 (DNA-PK/protein complex; enzymatic, 5 μM ATP) of the same compound?
Its IC50 is 0.003 to 0.007 µM.

What about the IC50 [2, 4] of the same compound?
The IC50 was 10 to 30 µM.

Which Ki (Kv11.1 (hERG) channel [3]) does the source give for `CCNCc1csc(C(O)c2cc(-c3ncnc4cc(N5CCOCC5)ccc34)c(F)cc2Cl)n1` (centres unmarked) [Example 190] here?
Its Ki is 15 to 25 µM.

For `COc1nccnc1C(C(N)=O)c1cc(-c2ncnc3cc(N4CCOCC4)ccc23)ccc1F` (centres unmarked) [Example 316], which Ki (Kv11.1 (hERG) channel [1]) is on record?
Its Ki is 15 to 25 µM.

And the IC50 (DNA-PK/protein complex; biochemical DNA-PK assay)?
Its IC50 is over 0.03 µM.

What about the IC50 ([2]; DNA-PK phosphorylation at serine 2056, HCT116 cells) of the same compound?
The IC50 was 5 to 10 µM.

Which results are given for `COc1nnc(Cl)cc1C(O)c1ccc(F)c(-c2ncnc3cc(N4CCOCC4)ccc23)c1` (centres unmarked) [Example 9]?
Ki (Kv11.1 (hERG) channel [1]; read-out: Ki [Kv1.11 hERG], HEK293 transfected with hERG gene, whole-cell): < 10 µM; IC50 (DNA-PK/protein complex; enzymatic, 5 μM ATP): 0.003 to 0.007 µM; IC50 [2, 4]: < 0.5 µM

For `OC(c1ccc(F)c(-c2ncnc3cc(N4CCOCC4)ccc23)c1)c1nccnc1I` (centres unmarked) [Example 462, [4-Fluoro-3-(7-morpholin-4-yl-quinazolin-4-yl)-phenyl]-(3-iodo-pyrazin-2-yl)-methanol], which Ki (Kv11.1 (hERG) channel [1]; read-out: Ki [Kv1.11 hERG], hERG patch clamp assay) is on record?
Its Ki is 15 to 25 µM.
